US9808527B2, “Methods and compositions for treating HIV infections” (priority 2006, dated 2017)

Columns and labels:
HIV-1GRL98065r-40P = assay: microbe, parasite or virus in culture; type: cell-based; conditions: for IC50: Human immunodeficiency virus 1, MT4, read-out: IC50 against HIV-1GRL98065r-40P; for fold change of IC50, HIV-1GRL98065r-40P: compared to HIV-1NL4-3
Protocol: Drug susceptibility assay. The susceptibility of HIV-1LAI, HIV-2EHO, HIV-2ROD, to various drugs and the cytotoxicity of those drugs was determined by using the MTT assay. Briefly, MT-2 cells (2×10^4/mL) were exposed to 100 TCID50s (50% tissue culture infectious doses) of HIV-1LAI, HIV-2EHO, or HIV-2ROD in the presence or absence of various concentrations of drugs in 96-well microculture plates and were incubated at 37° C. for 7 days. After 100 μL of the medium was removed from each well, 3-(4,5-dimethylthiazol-2-yl)-2,5-diphenyltetrazolium bromide (MTT) solution (10 μL, 7.5 mg/mL in phosphate-buffered saline) was added to each well in the plate, followed by incubation at 37° C. for 4 hours. […] All assays were performed in duplicate or triplicate. To determine the sensitivity of HIV-1Ba-L, HIV-1ERS104 pre, and clinical multi-drug-resistant HIV-1 isolates and different subtypes of HIV-1 isolates to drugs, phytohemagglutinin-activated peripheral blood mononuclear cells (PHA-PBMs; 10^6/mL) were exposed to 50 TCID50 (50% tissue infectious dose) of each HIV-1 isolate and cultured in the presence or absence of various concentrations of drugs in 10-fold serial dilutions in 96-well microtiter culture plates. To determine the drug susceptibility of certain laboratory HIV-1 strains (HIV-1NL4-3), MT-4 cells were used as target cells. MT-4 cells (10^5/mL) were exposed to 100 TCID50 of wild type HIV-1NL4-3 and PI-resistant HIV-1NL4-3 in the presence or absence of various concentrations of drugs and were incubated at 37° C. On day 7 of culture, the supernatant was harvested and the amount of p24 Gag protein was determined by using a fully automated chemiluminescent enzyme immunoassay system (Lumipulse F; Fujirebio Inc., Tokyo, Japan) (22). […] All assays were performed in duplicate or triplicate. […]

HIV-1MDR/B (X4) = assay: microbe, parasite or virus in culture; type: cell-based; conditions: for IC50: Human immunodeficiency virus 1, read-out: IC50 against HIV-1MDR/B (X4); for fold change of IC50, HIV-1MDR/B: compared to wild-type HIV-1ERS104pre
Protocol: (§1) Drug susceptibility assay. The susceptibility of HIV-1LAI, HIV-2EHO, HIV-2ROD, to various drugs and the cytotoxicity of those drugs was determined by using the MTT assay. Briefly, MT-2 cells (2×10^4/mL) were exposed to 100 TCID50s (50% tissue culture infectious doses) of HIV-1LAI, HIV-2EHO, or HIV-2ROD in the presence or absence of various concentrations of drugs in 96-well microculture plates and were incubated at 37° C. for 7 days. After 100 μL of the medium was removed from each well, 3-(4,5-dimethylthiazol-2-yl)-2,5-diphenyltetrazolium bromide (MTT) solution (10 μL, 7.5 mg/mL in phosphate-buffered saline) was added to each well in the plate, followed by incubation at 37° C. for 4 hours. […] All assays were performed in duplicate or triplicate. To determine the sensitivity of HIV-1Ba-L, HIV-1ERS104 pre, and clinical multi-drug-resistant HIV-1 isolates and different subtypes of HIV-1 isolates to drugs, phytohemagglutinin-activated peripheral blood mononuclear cells (PHA-PBMs; 10^6/mL) were exposed to 50 TCID50 (50% tissue infectious dose) of each HIV-1 isolate and cultured in the presence or absence of various concentrations of drugs in 10-fold serial dilutions in 96-well microtiter culture plates. To determine the drug susceptibility of certain laboratory HIV-1 strains (HIV-1NL4-3), MT-4 cells were used as target cells. MT-4 cells (10^5/mL) were exposed to 100 TCID50 of wild type HIV-1NL4-3 and PI-resistant HIV-1NL4-3 in the presence or absence of various concentrations of drugs and were incubated at 37° C. On day 7 of culture, the supernatant was harvested and the amount of p24 Gag protein was determined by using a fully automated chemiluminescent enzyme immunoassay system (Lumipulse F; Fujirebio Inc., Tokyo, Japan) (22). […] All assays were performed in duplicate or triplicate.
(§2) HIV-1ERS104pre served as a source of wild-type HIV-1. The IC50 values were determined by using PHA-PBMs as target cells and the inhibition of p24 Gag protein production by each drug was used as an endpoint.

HIV-1MDR/C (X4) = assay: microbe, parasite or virus in culture; type: cell-based; conditions: for IC50: Human immunodeficiency virus 1, read-out: IC50 against HIV-1MDR/C (X4); for fold change of IC50, HIV-1MDR/C: compared to wild-type HIV-1ERS104pre
Protocol: as §1, §2

HIV-1MDR/G (X4) = assay: microbe, parasite or virus in culture; type: cell-based; conditions: for IC50: Human immunodeficiency virus 1, read-out: IC50 against HIV-1MDR/G (X4); for fold change of IC50, HIV-1MDR/G: compared to wild-type HIV-1ERS104pre
Protocol: as §1, §2

HIV-1MDR/JSL (R5) = assay: microbe, parasite or virus in culture; type: cell-based; conditions: for IC50: Human immunodeficiency virus 1, read-out: IC50 against HIV-1MDR/JSL (R5); for fold change of IC50, HIV-1MDR/JSL: compared to wild-type HIV-1ERS104pre
Protocol: as §1, §2

HIV-1MDR/MM (R5) = assay: microbe, parasite or virus in culture; type: cell-based; conditions: for IC50: Human immunodeficiency virus 1, read-out: IC50 against HIV-1MDR/MM (R5); for fold change of IC50, HIV-1MDR/MM: compared to wild-type HIV-1ERS104pre
Protocol: as §1, §2

HIV-1MDR/TM (X4) = assay: microbe, parasite or virus in culture; type: cell-based; conditions: for IC50: Human immunodeficiency virus 1, read-out: IC50 against HIV-1MDR/TM (X4); for fold change of IC50, HIV-1MDR/TM: compared to wild-type HIV-1ERS104pre
Protocol: as §1, §2

92UG037 (A-R5) = assay: p24 Gag production inhibition, PHA-PBMs, subtype A isolate 92UG037; type: cell-based, HIV-1; conditions: Human immunodeficiency virus 1, read-out: IC50 against 92UG037 (A-R5)
Protocol: as §1
The IC50 values were determined by using PHA-PBMs as target cells and the inhibition of p24 Gag protein production by each drug was used as an endpoint.

| SMILES | IC50 (HIV-1GRL98065r-40P) [nM] | fold change of IC50, HIV-1GRL98065r-40P (HIV-1GRL98065r-40P) | IC50 (HIV-1MDR/B (X4)) [nM] | fold change of IC50, HIV-1MDR/B (HIV-1MDR/B (X4)) | IC50 (HIV-1MDR/C (X4)) [nM] | fold change of IC50, HIV-1MDR/C (HIV-1MDR/C (X4)) | IC50 (HIV-1MDR/G (X4)) [nM] | fold change of IC50, HIV-1MDR/G (HIV-1MDR/G (X4)) | IC50 (HIV-1MDR/JSL (R5)) [nM] | fold change of IC50, HIV-1MDR/JSL (HIV-1MDR/JSL (R5)) | IC50 (HIV-1MDR/MM (R5)) [nM] | fold change of IC50, HIV-1MDR/MM (HIV-1MDR/MM (R5)) | IC50 (HIV-1MDR/TM (X4)) [nM] | fold change of IC50, HIV-1MDR/TM (HIV-1MDR/TM (X4)) | IC50 (92UG037 (A-R5)) [nM] |
| --- | --- | --- | --- | --- | --- | --- | --- | --- | --- | --- | --- | --- | --- | --- | --- |
| COC(=O)N[C@H](C(=O)N[C@@H](Cc1ccccc1)[C@@H](O)CN(Cc1ccc(-c2ccccn2)cc1)NC(=O)[C@@H](NC(=O)OC)C(C)(C)C)C(C)(C)C [ATV, Atazanavir] | 11 | 3 | 250 ± 3 | 66 | 21 ± 6 | 6 | 32 ± 2 | 8 | 540 ± 200 | 142 | 45 ± 0.1 | 12 | 38 ± 9 | 10 | 2.5 ± 0.2 |
| CC(C)(C)NC(=O)[C@@H]1CN(Cc2cccnc2)CCN1C[C@@H](O)C[C@@H](Cc1ccccc1)C(=O)N[C@H]1c2ccccc2C[C@H]1O [IDV, indinavir] | 280 |  | > 1000 |  | > 1000 |  | 640 ± 110 |  | > 1000 |  | > 1000 |  | > 1000 |  |  |
| CC(C)CN(CC(O)C(Cc1ccccc1)NC(=O)OC1COC2OCCC12)S(=O)(=O)c1ccc2c(c1)OCO2 (stereo not shown) [GRL-98065] | 180 | 600 | 3.9 ± 0.5 | 8 | 2.7 ± 0.3 | 5 | 3.4 ± 0.3 | 7 | 6 | 12 | 3.8 ± 0.6 | 8 | 3.2 ± 0.6 | 6 | 0.4 ± 0.1 |
| CC(C)c1nc(CN(C)C(=O)N[C@H](C(=O)N[C@@H](Cc2ccccc2)C[C@H](O)[C@H](Cc2ccccc2)NC(=O)OCc2cncs2)C(C)C)cs1 [RTV, ritonavir] |  |  |  |  |  |  |  |  |  |  |  |  |  |  | 41 ± 8 |
| CC(C)(C)NC(=O)[C@@H]1C[C@@H]2CCCC[C@@H]2CN1C[C@@H](O)[C@H](Cc1ccccc1)NC(=O)[C@H](CC(N)=O)NC(=O)c1ccc2ccccc2n1 [SQV, Saquinavir] | 32 | 5 | 270 ± 60 | 34 | 35 ± 4 | 4 | 33 ± 5 | 4 | 290 ± 50 | 36 | 140 ± 40 | 18 | 180 ± 50 | 23 | 3.2 ± 0.3 |
| Cc1c(O)cccc1C(=O)N[C@@H](CSc1ccccc1)[C@H](O)CN1C[C@H]2CCCC[C@H]2C[C@H]1C(=O)NC(C)(C)C [NFV, Nelfinavir] |  |  |  |  |  |  |  |  |  |  |  |  |  |  | 56 ± 14 |
| CC(C)CN(C[C@@H](O)[C@H](Cc1ccccc1)NC(=O)O[C@H]1CCOC1)S(=O)(=O)c1ccc(N)cc1 [APV, Amprenavir] | > 1000 |  | 360 ± 90 |  | 250 ± 50 |  | 320 ± 20 |  | 430 ± 50 |  | 480 ± 90 |  | 300 ± 40 |  |  |
